# Assay results as given in patent publication US12581252B2, “Substituted pyrrolo[3,4-b]pyridines as PI3K-α inhibitors” (Relay Therapeutics, Inc., priority 2020, dated 2026).
# pIC50: −log10 of the molar value.
# Target: H1047R PIK3CA enzyme (Homo sapiens, UniProt P42336, H1047R)
# Assay: ADP-Glo Biochemical PIK3CA Kinase Assay
# H1047R PIK3CA enzyme, sequence (P42336 whole entry H1047R): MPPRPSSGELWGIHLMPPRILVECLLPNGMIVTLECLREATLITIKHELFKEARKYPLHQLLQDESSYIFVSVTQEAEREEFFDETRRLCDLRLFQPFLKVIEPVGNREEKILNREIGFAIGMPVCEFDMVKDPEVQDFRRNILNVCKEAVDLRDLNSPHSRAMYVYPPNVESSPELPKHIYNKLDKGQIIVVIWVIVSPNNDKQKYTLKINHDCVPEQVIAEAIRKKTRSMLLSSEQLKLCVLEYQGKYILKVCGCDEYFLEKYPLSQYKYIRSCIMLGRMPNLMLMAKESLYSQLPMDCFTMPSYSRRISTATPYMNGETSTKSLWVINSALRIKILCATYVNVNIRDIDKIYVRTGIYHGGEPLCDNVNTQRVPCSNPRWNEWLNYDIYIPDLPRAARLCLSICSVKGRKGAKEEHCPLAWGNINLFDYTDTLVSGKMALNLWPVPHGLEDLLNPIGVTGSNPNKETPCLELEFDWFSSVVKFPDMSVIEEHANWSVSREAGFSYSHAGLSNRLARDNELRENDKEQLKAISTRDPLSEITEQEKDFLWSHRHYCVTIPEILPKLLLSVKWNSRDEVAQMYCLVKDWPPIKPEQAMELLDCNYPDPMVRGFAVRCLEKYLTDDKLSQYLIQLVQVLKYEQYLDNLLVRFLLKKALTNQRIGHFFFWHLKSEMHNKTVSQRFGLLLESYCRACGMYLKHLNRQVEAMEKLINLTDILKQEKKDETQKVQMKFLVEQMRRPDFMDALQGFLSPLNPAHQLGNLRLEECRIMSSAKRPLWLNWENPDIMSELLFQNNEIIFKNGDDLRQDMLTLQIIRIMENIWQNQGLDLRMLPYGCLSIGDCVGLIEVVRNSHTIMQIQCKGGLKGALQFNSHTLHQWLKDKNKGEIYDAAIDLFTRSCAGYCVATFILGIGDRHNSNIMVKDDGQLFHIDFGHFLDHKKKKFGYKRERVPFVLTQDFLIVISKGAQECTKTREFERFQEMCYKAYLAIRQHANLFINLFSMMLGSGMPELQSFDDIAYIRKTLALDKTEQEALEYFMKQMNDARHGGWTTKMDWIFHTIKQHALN
# H1047R PIK3CA enzyme, sequence (P27986 whole entry partner): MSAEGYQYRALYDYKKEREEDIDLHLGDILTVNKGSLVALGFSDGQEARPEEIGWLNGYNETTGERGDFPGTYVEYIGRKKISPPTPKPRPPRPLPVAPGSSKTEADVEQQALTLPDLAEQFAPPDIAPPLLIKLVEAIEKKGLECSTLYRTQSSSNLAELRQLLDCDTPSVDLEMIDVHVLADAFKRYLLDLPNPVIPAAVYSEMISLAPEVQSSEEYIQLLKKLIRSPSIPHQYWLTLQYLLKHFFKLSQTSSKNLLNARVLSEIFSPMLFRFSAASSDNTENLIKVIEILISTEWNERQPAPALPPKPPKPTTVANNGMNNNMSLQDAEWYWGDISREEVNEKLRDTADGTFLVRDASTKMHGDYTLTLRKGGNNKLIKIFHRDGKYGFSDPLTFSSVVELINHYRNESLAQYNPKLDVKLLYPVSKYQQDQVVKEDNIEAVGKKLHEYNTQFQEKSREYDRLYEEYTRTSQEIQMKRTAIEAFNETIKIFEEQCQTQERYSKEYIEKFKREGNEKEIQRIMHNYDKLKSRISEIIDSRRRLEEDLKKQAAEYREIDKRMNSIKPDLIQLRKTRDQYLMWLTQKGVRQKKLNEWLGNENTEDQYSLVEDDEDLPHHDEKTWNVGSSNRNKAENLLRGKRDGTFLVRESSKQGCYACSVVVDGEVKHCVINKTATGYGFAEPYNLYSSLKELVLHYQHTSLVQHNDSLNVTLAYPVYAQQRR
row,SMILES,pIC50
1,O=C(Nc1cc(-c2ccn3nc(Cl)nc3c2)cc2c1[C@@H](c1cc(F)ccc1Cl)NC2=O)c1cc(F)cc(C(F)(F)F)c1 [Compound I-1695],5.00 to 6.00
2,Cn1ncc2c(C(=O)Nc3cccc4c3C(c3cc(F)ccc3Cl)NC4=O)cc(F)cc21 (stereo not shown) [Compound I-871],4.00 to 5.00
3,CNS(=O)(=O)Cc1cc(NC(=O)c2cc(F)cc(C(F)(F)F)c2)c2c(c1)C(=O)N[C@H]2c1cc(F)ccc1Cl [Compound I-1534],≥ 7.00
4,CC(C)(C)CCC1NC(=O)c2cccc(NC(=O)c3cc(F)cc(C(F)(F)F)c3)c21 (stereo not shown) [Compound I-2196],5.00 to 6.00
5,O=C(Nc1cc(-c2ccc3ocnc3c2)cc2c1C(c1cc(F)ccc1Cl)NC2=O)c1cc(F)cc(C(F)(F)F)c1 (stereo not shown) [Compound I-1415],≥ 7.00
6,N#Cc1ccccc1C(=O)Nc1cc(Br)cc2c1C(c1cc(F)ccc1Cl)NC2=O (stereo not shown) [Compound I-639],4.00 to 5.00
7,CS(=O)(=O)Cc1cc(NC(=O)c2cc(F)cc(C(F)(F)F)c2)c2c(c1)C(=O)N[C@@H]2c1cc(F)ccc1Cl [Compound I-619],5.00 to 6.00
8,O=C1NC(c2cc(F)ccc2Cl)c2c(NC(=O)N3CC(C(F)(F)F)CC(C(F)(F)F)C3)cc(Br)cc21 (racemic) [Compound I-661],5.00 to 6.00
9,CC1(C)CCc2scc(C(=O)Nc3cccc4c3C(c3cc(F)ccc3Cl)NC4=O)c2C1 (stereo not shown) [Compound I-2235],5.00 to 6.00
10,O=C1NC(c2cc(F)ccc2Cl)c2c(NC(=O)N3CCCC3)cc(-c3ccc4ncnn4c3)cc21 (stereo not shown) [Compound I-1720],4.00 to 5.00
11,CC12CC3CC(C)(C1)CC(C(=O)Nc1cccc4c1C(c1cc(F)ccc1Cl)NC4=O)(C3)C2 (stereo not shown) [Compound I-1074],6.30 to 7.00
12,O=C(Nc1cc(Br)cc2c1C(c1cc(F)ccc1Cl)NC2=O)c1ccc(Cl)cc1 (stereo not shown) [Compound I-527],5.00 to 6.00
13,"O=C1N[C@H](c2cc(F)ccc2Cl)c2c(NC(=O)N3C[C@](O)(C(F)(F)F)c4cc(F)ccc43)cc(-n3ccnn3)cc21 (single isomer, unassigned) [Compound I-2548]",5.00 to 6.00
14,O=C(Nc1cc(Cn2cccn2)cc2c1[C@H](c1cc(F)ccc1Cl)NC2=O)c1cc(F)cc(C(F)(F)F)c1 (stereo in doubt) [Compound I-1615],≥ 7.00
15,O=C(Nc1cc(Br)cc2c1[C@H](c1cc(F)cc(F)c1Cl)NC2=O)c1cc(F)cc(C(F)(F)F)c1 [Compound I-805],≥ 7.00
16,"O=C1N[C@H](c2cc(F)ccc2Cl)c2c(NC(=O)N3C[C@@](O)(C(F)(F)F)c4cc(F)ccc43)ccc(-n3ccnn3)c21 (single isomer, unassigned) [Compound I-2524]",5.00 to 6.00
17,CC(=O)N1CCCC(C2NC(=O)c3cccc(NC(=O)c4cc(F)cc(C(F)(F)F)c4)c32)C1 (racemic) [Compound I-1771],4.00 to 5.00
18,Cc1ccccc1C1NC(=O)c2cc(Br)cc(NC(=O)c3cncc(C(F)(F)F)c3)c21 (stereo not shown) [Compound I-528],5.00 to 6.00
19,O=C1NC(c2cc(F)ccc2Cl)c2c(NC(=O)C3CCCOC3)cc(-c3ccc4ncnn4c3)cc21 (stereo not shown) [Compound I-1814],4.00 to 5.00
20,O=C(Nc1cc(C2CCOCC2)cc2c1C(c1cc(F)ccc1Cl)NC2=O)c1cc(F)cc(C(F)(F)F)c1 (stereo not shown) [Compound I-1187],≥ 7.00
21,O=C1NC(c2cc(F)ccc2Cl)c2c(NC(=O)C3CCCC3C(F)F)cc(Br)cc21 (stereo not shown) [Compound I-1621],4.00 to 5.00
22,N#Cc1cnc2ncc(-c3cc(NC(=O)c4cc(F)cc(C(F)(F)F)c4)c4c(c3)C(=O)N[C@@H]4c3cc(F)ccc3Cl)cn12 [Compound I-1858],6.00 to 6.30

row,SMILES,pIC50
1,O=C(CO)Nc1cc(NC(=O)c2cc(F)cc(C(F)(F)F)c2)c2c(c1)C(=O)N[C@H]2c1cc(F)ccc1Cl [Compound I-511],≥ 7.00
2,O=C1NC(c2cc(F)ccc2Cl)c2c(NC(=O)N3CCCC(c4ccccc4)C3)cc(Br)cc21 (racemic) [Compound I-597],5.00 to 6.00
3,O=C(Nc1cccc2c1[C@H]([C@H]1CCCCCN1)NC2=O)c1cc(F)cc(C(F)(F)F)c1 (racemic) [Compound I-2318],4.00 to 5.00
4,N#CC1(C(=O)Nc2cc(-c3ccc4ncnn4c3)cc3c2C(c2cc(F)ccc2Cl)NC3=O)CCCC1 (stereo not shown) [Compound I-1899],4.00 to 5.00
5,Nc1cc(NC(=O)c2cc(F)cc(C(F)(F)F)c2)c2c(c1)C(=O)N[C@@H]2c1cc(F)ccc1Cl [Compound I-217],5.00 to 6.00
6,O=C(Nc1cccc2c1C(c1cc(F)ccc1Cl)NC2=O)c1ccc(O)c(C(F)(F)F)c1 (stereo not shown) [Compound I-2363],4.00 to 5.00
7,O=C(Nc1cccc2c1C(c1ccc(-c3ccccc3)cc1Cl)NC2=O)c1cc(F)cc(C(F)(F)F)c1 (stereo not shown) [Compound I-421],5.00 to 6.00
8,O=C1N[C@@H](c2cc(F)ccc2Cl)c2c(N[C@H]3CCOc4ccccc43)cc(-c3cnn(C(F)F)c3)nc21 [Compound I-2082],4.00 to 5.00
9,O=C(Nc1cc(-n2ccnn2)cc2c1C(c1cc(F)ccc1Cl)NC2=O)c1cc(F)cc(C(F)(F)F)c1 (stereo not shown) [Compound I-2148],≥ 7.00
10,O=C(Nc1cc(Br)cc2c1C(c1cc(F)ccc1Cl)NC2=O)c1cccc(C(F)F)c1 (stereo not shown) [Compound I-570],5.00 to 6.00
11,O=C(Nc1cc(Br)cc2c1C(c1cc(F)ccc1Cl)NC2=O)c1ccc(C(F)(F)F)o1 (stereo not shown) [Compound I-1423],5.00 to 6.00
12,C=CCCNC(=O)c1cc(NC(=O)c2cc(F)cc(C(F)(F)F)c2)c2c(c1)C(=O)NC2c1cc(F)ccc1Cl (stereo not shown) [Compound I-1422],≥ 7.00
13,O=C1NC(c2cc(F)ccc2Cl)c2c(NC(=O)N3CCCC34CC4)cccc21 (stereo not shown) [Compound I-2467],5.00 to 6.00
14,Cn1nc(Nc2cc(-c3ccc4ncnn4c3)cc3c2C(c2cc(F)ccc2Cl)NC3=O)c2cc(F)cc(C(F)(F)F)c21 (stereo not shown) [Compound I-2050],6.00 to 6.30
15,O=C1N[C@H](c2cc(F)ccc2Cl)c2c(NC(=O)[C@@H]3CCCCN3)cc(-c3ccc4ncnn4c3)cc21 [Compound I-2146],4.00 to 5.00
16,O=C(Nc1cc(-c2ccc(=O)n(C3CC3)c2)cc2c1C(c1cc(F)ccc1Cl)NC2=O)c1cc(F)cc(C(F)(F)F)c1 (stereo not shown) [Compound I-700],≥ 7.00
17,O=C(Nc1cc(N2CC3CNC(=O)C3C2)cc2c1C(c1cc(F)ccc1Cl)NC2=O)c1cc(F)cc(C(F)(F)F)c1 (stereo not shown) [Compound I-1309],≥ 7.00
18,"O=C1N[C@H](c2cc(F)ccc2Cl)c2c(NC(=O)[C@H]3CCC[C@@H](OC(F)(F)F)C3)cccc21 (single isomer, unassigned) [Compound I-2217]",4.00 to 5.00
19,CC(C)(O)c1cc(NC(=O)c2cc(F)cc3cc[nH]c23)c2c(c1)C(=O)NC2c1cc(F)ccc1Cl (stereo not shown) [Compound I-495],≥ 7.00
20,O=C1NC(c2cc(F)ccc2Cl)c2c(NC(=O)[C@H]3C[C@@H](O)C[C@@H](C(F)(F)F)C3)cc(Br)cc21 (stereo partly shown) [Compound I-2027],4.00 to 5.00
21,CS(=O)(=O)N1CCC[C@H](Oc2cc(NC(=O)c3cc(F)cc(C(F)(F)F)c3)c3c(c2)C(=O)NC3c2cc(F)ccc2Cl)C1 (mixture of isomers) [Compound I-1526],6.30 to 7.00
22,O=C(Nc1cc(Cl)cc2c1C(c1cc(F)ccc1Cl)NC2=O)c1cc(F)cc(C(F)(F)F)c1 (stereo not shown) [Compound I-688],≥ 7.00

row,SMILES,pIC50
1,O=C1NC(c2cc(F)ccc2Cl)c2c(Nc3nn(C4CC4)c4ccccc34)cc(-c3ccc4ncnn4c3)cc21 (stereo not shown) [Compound I-1809],5.00 to 6.00
2,Cn1cc(-c2cc(NC(=O)c3cc(F)cc(C(F)(F)F)c3)c3c(n2)C(=O)NC3c2cc(F)ccc2Cl)ccc1=O (stereo not shown) [Compound I-547],≥ 7.00
3,"N#CC1(COc2cc(NC(=O)N3C[C@@H](O)c4cc(F)ccc43)c3c(c2)C(=O)N[C@H]3c2cc(F)ccc2Cl)CC1 (single isomer, unassigned) [Compound I-2551]",5.00 to 6.00
4,N#CCn1nc(Nc2cc(-c3ccc4ncnn4c3)cc3c2C(c2cc(F)ccc2Cl)NC3=O)c2ccccc21 (stereo not shown) [Compound I-1808],5.00 to 6.00
5,CC(c1cc(NC(=O)c2cc(F)cc(C(F)(F)F)c2)c2c(c1)C(=O)NC2c1cc(F)ccc1Cl)S(C)(=O)=O (stereo not shown) [Compound I-1292],≥ 7.00
6,CC(=O)NCc1cc(NC(=O)c2cc(F)cc(C(F)(F)F)c2)c2c(c1)C(=O)NC2c1cc(F)ccc1Cl (stereo not shown) [Compound I-207],6.30 to 7.00
7,"O=C1N[C@@H](c2cc(F)ccc2Cl)c2c(NC(=O)N3CCOCC(F)(F)C3)cc(Br)cc21 (single isomer, unassigned) [Compound I-2242]",4.00 to 5.00
8,"O=C1N[C@H](c2cc(F)ccc2Cl)c2c(NC(=O)N3C[C@H](O)c4cc(F)c(F)cc43)cccc21 (single isomer, unassigned) [Compound I-2294]",4.00 to 5.00
9,CC(C)(O)c1cc(NC(=O)c2nsc3ccccc23)c2c(c1)C(=O)NC2c1ccccc1C(F)F (stereo not shown) [Compound I-356],≥ 7.00
10,O=C(Nc1cc(C2COC2)cc2c1C(c1cc(F)ccc1Cl)NC2=O)c1cc(F)cc(C(F)(F)F)c1 (stereo not shown) [Compound I-420],≥ 7.00
11,O=C1NC(c2cc(F)ccc2Cl)c2c(NC(=O)C34CC5CC(CC(F)(C5)C3)C4)cccc21 (stereo not shown) [Compound I-1133],6.00 to 6.30
12,O=C(Nc1cc(Br)cc2c1[C@H](c1cc(F)c(F)cc1Cl)NC2=O)c1cc(F)cc(C(F)(F)F)c1 [Compound I-677],≥ 7.00
13,O=C(Nc1cc(C2CS(=O)(=O)C2)cc2c1C(c1cc(F)ccc1Cl)NC2=O)c1cc(F)cc(C(F)(F)F)c1 (stereo not shown) [Compound I-1196],≥ 7.00
14,O=C(Nc1cc(-c2cn3c(F)cnc3cn2)cc2c1[C@@H](c1cc(F)ccc1Cl)NC2=O)c1cc(F)cc(C(F)(F)F)c1 [Compound I-1877],5.00 to 6.00
15,[2H]c1nc2ccc(-c3cc(NC(=O)c4cc(F)cc(C(F)(F)F)c4)c4c(c3)C(=O)N[C@H]4c3cc(F)ccc3Cl)cn2n1 (stereo in doubt) [Compound I-1785],≥ 7.00
16,CC(C)(O)Cc1cc(NC(=O)c2cc(F)cc(C(F)(F)F)c2)c2c(c1)C(=O)N[C@@H]2c1cc(F)ccc1Cl [Compound I-622],6.30 to 7.00
17,O=C1N[C@H](c2cc(F)ccc2Cl)c2c(NC(=O)[C@@H]3CC[C@H](C(F)(F)F)C3)cccc21 [Compound I-2084],4.00 to 5.00
18,"CC[C@H](CC(=O)Nc1cccc2c1[C@H](c1cc(F)ccc1Cl)NC2=O)[C@@H](C)C(F)(F)F (single isomer, unassigned) [Compound I-2335]",5.00 to 6.00
19,O=C(Nc1cc(-n2ccnc2)cc2c1[C@@H](c1cc(F)ccc1Cl)NC2=O)c1cc(F)cc(C(F)(F)F)c1 (stereo in doubt) [Compound I-1125],6.30 to 7.00
20,O=C(Nc1cc(-c2ccc3ncnn3c2)nc2c1C(c1cc(F)ccc1Cl)NC2=O)c1cc(F)cc(C(F)(F)F)c1 (stereo not shown) [Compound I-1226],≥ 7.00
